# Experimental data from patent publication US10449200B2, “Combined inhibition of the vitamin D receptor and poly(ADP) ribose polymerase (PARP) in the treatment of cancer” (Institute for Cancer Research, priority 2014, dated 2019).
# Like-named read-outs stand apart in the source and are kept apart here.
# Columns and labels:
# [1] = tested on: CFPAC1 cells; assay: Clonogenic survival assay, gemcitabine kill curves; type: cell-based; details: Homo sapiens
# Method: Cell culture and chemicals. Panc1, BxPC3, and CFPAC1 cells were purchased from American Type Culture Collection (ATCC) and banked in house until use. Cell lines were cultured in DMEM/10% FBS supplemented with 2 mM glutamine and 1% penicillin, streptomycin, and kanamycin (PSK) and were maintained at 37° C. in 5% CO2. Charcoal stripped (in house cell culture facility) and dialyzed FBS (Life Technologies; 509 26400-036) were used. Gemcitabine was obtained from the in house pharmacy. Rucaparib and trichostatin A were gifts.
# (§1) Cell viability assays. For clonogenic assays, 1000 cells per well were seeded into 6 well plates on day 0. Cells were treated with gemcitabine at various doses on day 1 for 24 hours, Gemcitabine was washed out on day 2, and cells were allowed to grow for a subsequent 10 days before being fixed (10% methanol+10% acetic acid) and stained with crystal violet (0.4% in 20% ethanol) for colony counting and quantitation. For Rucaparib clonogenic assays, the drug was added at various doses 24 hours after cell plating, and cells were allowed to grow for a subsequent 10 days in the presence of Rucaparib. For TSA clonogenic assays, the drug was added for 4 hours prior to addition of gemcitabine or vehicle for another 18 hours before drugs were washed away, and cells were allowed to grow in drug-free medium for 10 days.
# [2] = tested on: BxPC3 cells; assay: TSA clonogenic assay (TSA + gemcitabine); type: cell-based; details: Homo sapiens
# Method: as §1
# To test the functional relevance of the TSA mediated Rad51 foci formation in the VDR knockdown cells, whether TSA altered the sensitivity to gemcitabine was investigated. […] Parental cell sensitivity to gemcitabine was increased by TSA treatments at the concentrations tested (p=0.02).
# [3] = tested on: Panc1 cells; assay: Cell viability (Cell Titer Glo) in siRNA screen; type: cell-based; details: Homo sapiens, PANC-1, read-out: sublethal dose (IC20)
# Method: Synthetic lethal RNAi Screen. High throughput RNAi was performed using the validated human genome-wide siRNA library version 2.0 obtained from Dharmacon. This is a SMARTPool (4 siRNAs per gene) library that targeted ^˜23,500 of the annotated genes, and has been validated to deplete mRNA by 75%. Stock siRNA was diluted in siRNA buffer (Dharmacon; B-002000-UB-100) and 10 ng of siRNA was reverse transfected into Panc1 cells seeded into white Corning 384-well plates (Fisher Scientific; 07-201-320) in quadruplicates on day 0. Briefly, diluted Dharmafect1 reagent (Dharmacon; T-2001-01) in OptiMEM (Life Technologies; 51985091) was added to the wells and allowed to complex with siRNA for 20 minutes at room temperature. Panc1 cells in 100 μl of DMEM/10% FBS media without PSK were mixed with 100 μl of transfection mix at 1000 cells/well. Plates were incubated at 37° C. with 5% CO2. […] Total viable cell number was determined by the addition of Cell Titer Glo (Promega; G7573) and relative luminescence units (RLU) were measured using an EnVision plate reader (Perkin Elmer). […] The effect of gemcitabine treatment on viability was measured based on the normalized viabilities in the drug treated and vehicle wells using Limma, Statistical significance was measured by p-values controlled for the false discovery rate (FDR) using the Benjamini-Hochberg step-up method to account for multiple testing. […]
# [4] = tested on: Panc1 cells; assay: Time-lapse microscopy of H2B:gfp cells; type: cell-based, human; details: gemcitabine 50 nM
# Method: Microscopy. For timelapse studies, Panc1 cells with stable expression of Histone H2B fused at its C-terminus to GFP were seeded into 6-well plates. 24 hours post cell plating, gemcitabine (50 nM) was added before timelapse was commenced. The plate was placed in a 37° C. chamber; bright-field and fluorescent images were taken every 5 minutes for 48 hours using a Nikon TE2000S microscope controlled by Metamorph (Molecular Devices). Three independent movies were conducted for each condition. Movies were allowed to commence for 48 hours for each independent experiment.
# Time-lapse microscopy was used to track the fates of gemcitabine-treated Panc1 cells that stably expressed a H2B:gfp fusion protein that labeled chromosomes. Cells were transfected with siRNAs, treated with vehicle or gemcitabine and monitored every 10 minutes for 48 hours (FIG. 2).
# [5] = tested on: VDR; assay: Western blot of VDR expression after gemcitabine; type: cell-based, human; details: gemcitabine 50 nM 18 hrs
# Method: Western Blotting. BxPC3, Panc1, and CFPAC1 cells were treated with vehicle or gemcitabine (50 nM) for 18 hrs. Cells were harvested, washed in PBS and lysed in NP40 lysis buffer (1% NP40/PBS/10% glycerol) with protease and phosphatase inhibitors. Protein concentrations were determined with MicroBCA Assay (Pierce Biotechnology; 23224 and 23228) and then SDS sample buffer was added to the lysates. 40 μg of boiled lysates was separated by SDS-PAGE and then transferred onto Immobilon P membrane (Millipore; IPVH00010). Antibodies used for immunoblotting were obtained from: VDR (Epitomics; 3277-1), γH2AX (Upstate Biotechnologies, now Millipore; 05-636), Rad51 (Genetex; GTX70230, gift), p300 (Santa Cruz Biotechnologies; SC-584), and TAO1 kinase (Bethyl Labs; A300-524A).
# Next, the levels of VDR protein were compared in BxPC3, CFPAC1, and Panc1 cells to see if the amount of expression might correlate with gemcitabine sensitivity.
smiles,measurement,setting,value
Nc1ccn([C@@H]2O[C@H](CO)[C@@H](O)C2(F)F)c(=O)n1 [gemcitabine],IC50,"[1]; CFPAC-1, CFPAC1, VDR depleted (VDR siRNA), read-out: IC50 gemcitabine",~20 nM
same,IC50,"[1]; CFPAC-1, CFPAC1, control siRNA, read-out: mean IC50 gemcitabine",~45 nM
same,IC50,"[1]; CFPAC-1, CFPAC1 cells, read-out: IC50 gemcitabine",~45 nM
same,IC50,"[2]; BXPC-3, BxPC3 VDRkd cells, with TSA (500 nM), read-out: IC50 of gemcitabine",50 nM
same,IC50,"[2]; BXPC-3, BxPC3 VDRkd cells, without TSA, read-out: IC50 of gemcitabine",50 nM
same,IC50,"[2]; BXPC-3, BxPC3 parental cells, gemcitabine alone, read-out: IC50 gemcitabine",~200 nM
same,IC50,"[2]; BXPC-3, BxPC3 parental cells, gemcitabine plus TSA (500 nM), read-out: IC50 gemcitabine",100 nM
same,IC20,[3],50 nM
same,cell fate in 48 hour timelapse,"[4]; Panc1, Chk1 knockdown",enter mitosis where many died or died shortly after exit from mitosis
same,cell fate in 48 hour timelapse,"[4]; Panc1, VDR siRNA","never entered mitosis, but nevertheless died"
same,cell fate in 48 hour timelapse,"[4]; Panc1, control siRNA",stopped proliferation
same,VDR levels after overnight treatment with gemcitabine,[5]; BXPC3 cells,No noticeable increase
same,VDR levels after overnight treatment with gemcitabine,[5]; CFPAC1 cells,increased
same,VDR levels after overnight treatment with gemcitabine,[5]; Panc1 cells,increased
